In patent US7943608B2, “Diazepinoes” (Merck Patent GmbH, priority 2005, dated 2011) one finds IC50 data, which are given here for 35 molecules.

For orientation: IC50 means the midpoint of a concentration-inhibition curve. The low end stands for higher potency, the high end for lower potency.

In the assay the target is T1, His6-PDK1(Δ1-50) (Homo sapiens, UniProt O15530).
T1 construct: His6 (N)
T1 sequence (O15530 51-556): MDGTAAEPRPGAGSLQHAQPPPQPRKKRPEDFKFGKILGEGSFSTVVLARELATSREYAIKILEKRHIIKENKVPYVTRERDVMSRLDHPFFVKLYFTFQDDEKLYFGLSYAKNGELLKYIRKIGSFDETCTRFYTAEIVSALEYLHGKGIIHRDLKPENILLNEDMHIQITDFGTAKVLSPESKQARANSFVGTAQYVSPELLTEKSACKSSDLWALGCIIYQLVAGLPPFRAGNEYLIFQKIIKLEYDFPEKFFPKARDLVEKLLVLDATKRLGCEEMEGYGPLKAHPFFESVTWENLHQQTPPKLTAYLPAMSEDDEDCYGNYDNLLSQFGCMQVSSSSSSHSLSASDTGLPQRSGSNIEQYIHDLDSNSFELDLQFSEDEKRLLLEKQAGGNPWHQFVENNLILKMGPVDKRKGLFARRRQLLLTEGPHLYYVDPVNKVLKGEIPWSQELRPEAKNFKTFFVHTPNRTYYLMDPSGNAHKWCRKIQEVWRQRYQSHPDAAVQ
The experiment in a line: Inhibition of PDK1 (IC50), 384-well flashplate kinase assay. The class given is biochemical. As to conditions: 4 μM ATP, 400 nM PDKtide, second part of Table 1 (compounds 32-124). The method, then: Inhibition of PDK1 (IC50)
The kinase assay can be carried out as a 384-well flashplate assay. 3.4 nM His6-PDK1(Δ1-50), 400 nM PDKtide (biotin-bA-bA-[…]) and 4 μM ATP (with 0.2 μCi of 33P-ATP/well) are incubated at […] for 60 min in a total volume of 50 μl (50 mM TRIS, 10 mM Mg acetate, 0.1% of mercaptoethanol, 0.02% of Brij35, 0.1% of BSA, pH 7.5) with or without test substance (5-10 concentrations). The reaction is stopped using 25 μl of 200 mM EDTA solution, filtered with suction after 30 min at room temperature, and the wells are washed with 3 times 100 μl of 0.9% NaCl solution. The nonspecific content of the kinase reaction (blank) is determined using 100 nM staurosporine. Radioactivity is measured using a Topcount scintillation counter (PerkinElmer, USA). IC50 values are calculated using the RS1 computer program.
Consider `CCOc1ccc2c(c1)NC(=O)c1cnc(N(C)C3CCN(C)CC3)nc1N2` [Compound 64], for which inhibition was half-maximal at 430 nM (IC50). The same measure for `CCOc1ccc2c(c1)NC(=O)c1cnc(NC3CCN(C)CC3)nc1N2` [Compound 65]: 520 nM. For `Cc1ccc2c(c1C)Nc1nc(NC3CCN(C)CC3)ncc1C(=O)N2` [Compound 66], half-maximal inhibition (IC50) was put at 3400 nM.

`CN1CCC(N(C)c2ncc3c(n2)Nc2ccc(C(F)(F)F)cc2NC3=O)CC1` [Compound 67] returned an IC50 of 1300 nM. Take `CN1CCC(N(C)c2ncc3c(n2)Nc2cc(N)ccc2NC3=O)CC1` [Compound 68]: the IC50 was found to be 510 nM.

Turning to `CN1CCC(N(C)c2ncc3c(n2)Nc2cc(NC(=O)NC4CCCC4)ccc2NC3=O)CC1` [Compound 69], the IC50 was 650 nM. For the molecule `CC(C)Cn1cc(-c2ccc3c(c2)NC(=O)c2cnc(N(C)C4CCN(C)CC4)nc2N3)cn1` [Compound 70], the IC50 is 110 nM. `CN(c1ncc2c(n1)Nc1ccc(C(C)(C)C)cc1NC2=O)C1CCNCC1` [Compound 71] displayed an IC50 of 430 nM. Regarding `Cc1cc2c(cc1C)Nc1nc(N(C)C3CCN(C(=O)CCN(C)C)CC3)ncc1C(=O)N2` [Compound 72], the IC50 is 8100 nM. With `Cc1cc2c(cc1C)Nc1nc(N(C)C3CCN(CCN(C)C)CC3)ncc1C(=O)N2` [Compound 73], half-maximal inhibition (IC50) required 3900 nM. The same measure for `Cc1cc2c(cc1C)Nc1nc(N(C)C3CCNCC3)ncc1C(=O)N2` [Compound 74]: 320 nM; for `CC(C)NC(=O)Nc1ccc2c(c1)Nc1nc(N(C)C3CCN(C)CC3)ncc1C(=O)N2` [Compound 75]: 960 nM; for `CCNC(=O)Nc1ccc2c(c1)Nc1nc(N(C)C3CCN(C)CC3)ncc1C(=O)N2` [Compound 76]: 1300 nM. As to `CCC(C)NC(=O)Nc1ccc2c(c1)Nc1nc(N(C)C3CCN(C)CC3)ncc1C(=O)N2` (centres unmarked) [Compound 77], the half-maximal inhibitory concentration (IC50) amounted to 940 nM.

`CN1CCC(N(C)c2ncc3c(n2)Nc2ccc(NC(=O)NC4CCCC4)cc2NC3=O)CC1` [Compound 78] gave an IC50 of 150 nM. In turn, `CC(C)NC(=O)Nc1cccc2c1Nc1nc(N(C)C3CCN(C)CC3)ncc1C(=O)N2` [Compound 79] yielded an IC50 of 6000 nM.

In turn, `CN1CCC(N(C)c2ncc3c(n2)Nc2ccc(N)cc2NC3=O)CC1` [Compound 80] returned an IC50 of 190 nM. Turning to `CCCNC(=O)Nc1ccc2c(c1)Nc1nc(N(C)C3CCN(C)CC3)ncc1C(=O)N2` [Compound 81], the half-inhibitory concentration (IC50) came to 420 nM. In turn, `CN1CCC(N(C)c2ncc3c(n2)Nc2cc(NC(=O)NC4CCCCC4)ccc2NC3=O)CC1` [Compound 82] came in with an IC50 of 750 nM. Molecule `CN1CCC(N(C)c2ncc3c(n2)Nc2ccc(NC(=O)NC(C)(C)C)cc2NC3=O)CC1` [Compound 83] returned a 50% inhibitory concentration (IC50) of 200 nM. The molecule `CN1CCC(N(C)c2ncc3c(n2)Nc2c(NC(=O)NC(C)(C)C)cccc2NC3=O)CC1` [Compound 84] came in with an IC50 of 5500 nM. Molecule `CCNC(=O)Nc1ccc2c(c1)NC(=O)c1cnc(N(C)C3CCN(C)CC3)nc1N2` [Compound 85] yielded a 50% inhibitory concentration (IC50) of 280 nM. Then `CCCNC(=O)Nc1ccc2c(c1)NC(=O)c1cnc(N(C)C3CCN(C)CC3)nc1N2` [Compound 86], with 280 nM; and `CCC(C)NC(=O)Nc1ccc2c(c1)NC(=O)c1cnc(N(C)C3CCN(C)CC3)nc1N2` (centres unmarked) [Compound 87], with 230 nM; and `CN1CCC(N(C)c2ncc3c(n2)Nc2ccc(NC(=O)NC4CCCCC4)cc2NC3=O)CC1` [Compound 88], with 150 nM.

As to `CN1CCC(N(C)c2ncc3c(n2)Nc2ccc(NC(=O)Nc4cccs4)cc2NC3=O)CC1` [Compound 89], it took 200 nM to reach half-maximal inhibition (IC50). `CN1CCC(N(C)c2ncc3c(n2)Nc2cc(NC(=O)Nc4cccs4)ccc2NC3=O)CC1` [Compound 90] showed an IC50 of 290 nM. The same measure for `CCC(C)NC(=O)Nc1cccc2c1Nc1nc(N(C)C3CCN(C)CC3)ncc1C(=O)N2` (centres unmarked) [Compound 92]: 7800 nM; for `CN1CCC(N(C)c2ncc3c(n2)Nc2c(NC(=O)NC4CCCCC4)cccc2NC3=O)CC1` [Compound 93]: 3500 nM; for `CN1CCC(N(C)c2ncc3c(n2)Nc2cc(NC(=O)Nc4ccsc4)ccc2NC3=O)CC1` [Compound 94]: 160 nM.

As for `Cc1noc(C)c1NC(=O)Nc1ccc2c(c1)Nc1nc(N(C)C3CCN(C)CC3)ncc1C(=O)N2` [Compound 95], 950 nM corresponded to half-maximal inhibition (IC50). Consider `CN1CCC(N(C)c2ncc3c(n2)Nc2ccc(NC(=O)Nc4ccsc4)cc2NC3=O)CC1` [Compound 99], for which the IC50 stood at 120 nM. As to `Cc1noc(C)c1NC(=O)Nc1ccc2c(c1)NC(=O)c1cnc(N(C)C3CCN(C)CC3)nc1N2` [Compound 100], it took 220 nM to reach half-maximal inhibition (IC50).

Regarding `CN1CCC(N(C)c2ncc3c(n2)Nc2c(NC(=O)Nc4ccsc4)cccc2NC3=O)CC1` [Compound 101], 340 nM corresponded to half-maximal inhibition (IC50).

In the case of `Cc1noc(C)c1NC(=O)Nc1cccc2c1Nc1nc(N(C)C3CCN(C)CC3)ncc1C(=O)N2` [Compound 102], it took 3400 nM to reach half-maximal inhibition (IC50).
